Experimental findings from patent US20260327655A1, “SMALL-MOLECULE REGULATED ALTERNATIVE SPLICING” (priority 2023, published 2026) are described below.

What all share (type): cell-based
Details in all cases: Homo sapiens

The subject of assay [1] is RS1-10 minigene (Firefly Luciferase), HEK-293T cells. The assay is described as follows: Luciferase induction assay, RS1-10 with splice modulator compounds in HEK-293T cells. As to the method:
(§1) HEK-293T cells were cultured in DMEM+10% FBS, collected after trypsinization, and then dispensed into 96-well plates (cell culture-treated). Each well of the plate was seeded with 1.0×10^5 cells in 100 μL culture medium. After a 1-hour incubation in a tissue culture incubator (5% CO2, 37 degrees C.), plasmid DNA was complexed with a transfection reagent, such as Lipofectamine 3000, and added to respective wells on the plate. Each well received an equivalent of 100 ng of plasmid DNA complexed with 0.15 μL Lipofectamine. Triplicate wells were used for each condition tested in the experiment. The plasmid utilized in the experiment encoded a CMV promoter upstream of the RS I-10 variant that controlled the expression of a Firefly Luciferase gene followed by a SV40 polyadenylation signal. After a 10-minute incubation at room temperature, either DMSO vehicle or specified compound at specified dose was added to the wells of the plate. Plates were then incubated for 18 hours in a tissue culture incubator. Endpoint analysis was performed by adding 100 uL Steady-Luc Firefly Luciferase substrate to each well of the assay plate. After mixing, the liquid contents of each was transferred to a 96-well plate, mixed again for 2 min on an orbital shaker, and incubated at room temperature for 5 min. Finally, the luminescent signal from each well was measured with a with PerkinElmer Envision plate reader. The results of this assay show RS1-10 responded to the majority of the splice modulator compounds used in a dose responsive manner (FIG. 9C). Bars represent mean+/−standard deviation of 3 wells normalized to vehicle controls.

Assay [2] concerns RS2-3 minigene (Firefly Luciferase), HEK-293T cells. The experiment in a line: Luciferase induction assay, RS2-3 with splice modulator compounds in HEK-293T cells. On the procedure:
as §1, with “RS2-3” for “RS I-10”, “RS2-3” for “RS1-10”, “used” for “used in a dose responsive manner”, “13C)” for “9C).”

In assay [3] the test system is RS3-13 minigene (Firefly Luciferase), HEK-293T cells. The experiment in a line: Luciferase induction assay, RS3-13 with splice modulator compounds in HEK-293T cells. As to the method:
as §1, with “RS3-13” for “the RS I-10 variant”, “RS3-13” for “RS1-10”, “used” for “used in a dose responsive manner”, “14D)” for “9C).”

Where [4] appears, read: RS1-10, 100 nM, 18 hours, n of 3, read-out: Mean fold-induction of luciferase (relative to vehicle control).
Setting [5] is: RS1-10, 1,000 nM, 18 hours, n of 3, read-out: Mean fold-induction of luciferase (relative to vehicle control).
Setting [6] is: RS2-3, 100 nM, 18 hours, n of 3, read-out: Mean fold-induction of luciferase (relative to vehicle control).
The mark [7] stands for this setting: RS2-3, 1,000 nM, 18 hours, n of 3, read-out: Mean fold-induction of luciferase (relative to vehicle control).
[8] abbreviates: RS3-13, 100 nM, 18 hours, n of 3, read-out: Mean fold-induction of luciferase (relative to vehicle control).
Where [9] appears, read: RS3-13, 1,000 nM, 18 hours, n of 3, read-out: Mean fold-induction of luciferase (relative to vehicle control).
The mark [10] stands for this setting: 18 h, read-out: Mean fold-induction of luciferase (relative to vehicle control).

Where two headings read alike, the source gives them in different places.

For the compound `Cc1cn2nc(-c3ccc(-c4ccc(C5CNC5)nn4)c(O)c3)cc(C)c2n1` [Compound 3A], the fold induction at 0.1 µM in assay [1] (setting [4]) was 31.7; in assay [2] (setting [6]) it was 2.86; in assay [3] (setting [8]), 1.81. For the same compound, the fold induction at 1 µM turned out to be 94.7 in assay [1] (setting [5]), 17.6 in assay [2] (setting [7]) and 10.2 in assay [3] (setting [9]).

For the compound `Cc1cc(-c2ccc(-c3ccc(C4CNC4)nn3)c(O)c2)cc2cn(C)nc12` [Compound 6A], the fold induction at 0.1 µM in assay [1] (setting [4]) amounted to 29.4; in assay [2] (setting [6]), 2.54; in assay [3] (setting [8]) it was 1.69. For the same compound, the fold induction at 1 µM in assay [1] (setting [5]) was 69.6; in assay [2] (setting [7]), 13.9; in assay [3] (setting [9]), 7.94.

On to `Cc1cn2cc(-c3cc(O)c(-c4ccc(C5CNC5)nn4)cc3F)cc(F)c2n1` [Compound 8A], for which the fold induction at 0.1 µM came out at 41.5 in assay [1] (setting [4]), 4.1 in assay [2] (setting [6]) and 2.11 in assay [3] (setting [8]). Besides, the fold induction at 1 µM is 79.2 in assay [1] (setting [5]), 16 in assay [2] (setting [7]) and 9.79 in assay [3] (setting [9]).

Regarding `Cc1cn2cc(-c3ccc(-c4ccc(C5CNC5)nn4)c(O)c3F)cc(F)c2n1` [Compound 10A], the fold induction at 0.1 µM in assay [1] (setting [4]) stood at 65.9; in assay [2] (setting [6]), 11.1; in assay [3] (setting [8]) it was 10.1. In addition, the fold induction at 1 µM in assay [1] (setting [5]) was determined as 96; in assay [2] (setting [7]) it was 29.2; in assay [3] (setting [9]) it was 43.6.

As for `Cc1cn2cc(-c3ccc(-c4ccc(C5CN(C(C)C)C5)nn4)c(O)c3)cc(F)c2n1` [Compound 15A], the results for the fold induction at 0.1 µM in assay [1] (setting [4]), in assay [2] (setting [6]) and in assay [3] (setting [8]) were 79, 17 and 20.6, respectively. Besides, the fold induction at 1 µM came out at 82 in assay [1] (setting [5]), 39.4 in assay [2] (setting [7]) and 54.5 in assay [3] (setting [9]).

Consider `CCN1CC(c2ccc(-c3ccc(-c4cn5cc(C)nc5c(C)n4)cc3O)nn2)C1` [Compound 32A], for which the values for the fold induction at 0.1 µM in assay [1] (setting [4]), in assay [2] (setting [6]) and in assay [3] (setting [8]) were 53.5, 5.9 and 3.24, respectively. Moreover, the results for the fold induction at 1 µM in assay [1] (setting [5]), in assay [2] (setting [7]) and in assay [3] (setting [9]) were 83.1, 23.3 and 23, respectively.

As to `Cc1cn2cc(-c3ccc(-c4ccc(C5CN(C6CCOC(C)(C)C6)C5)nn4)c(O)c3)cc(F)c2n1` (stereo not drawn) [Compound 86A], the fold induction at 0.1 µM in assay [1] (setting [4]) is 56.1; in assay [2] (setting [6]), 7.86; in assay [3] (setting [8]) it was 7.54. Further, the fold induction at 1 µM in assay [1] (setting [5]) is 85.1; in assay [2] (setting [7]) it was 27.7; in assay [3] (setting [9]), 31.3.

Regarding `Cc1cn2cc(-c3ccc(-c4ccc(C5CN(Cc6cocn6)C5)nn4)c(O)c3)cc(F)c2n1` [Compound 101A], the fold induction at 0.1 µM in assay [1] (setting [4]) was found to be 57.5; in assay [2] (setting [6]) it was 8.48; in assay [3] (setting [8]), 6. The fold induction at 1 µM in assay [1] (setting [5]) was 86.8; in assay [2] (setting [7]), 31.5; in assay [3] (setting [9]), 34.2.

On to `Cc1cn2cc(-c3nc(=O)n4cc(N5CCNCC5)cc(C)c4n3)cc(F)c2n1` [Compound 108B], for which the fold induction at 0.1 µM came to 1.16 in assay [1] (setting [4]), 1.65 in assay [2] (setting [6]) and 1.41 in assay [3] (setting [8]). Further, the fold induction at 1 µM was 1.43 in assay [1] (setting [5]), 1.76 in assay [2] (setting [7]) and 1.66 in assay [3] (setting [9]).

As for `Cc1cn2cc(-c3nc(=O)n4cc(C5=CCNCC5)ccc4n3)cc(F)c2n1` [Compound 111B], the fold induction at 0.1 µM in assay [1] (setting [10]) worked out at 3.06; in assay [2] (setting [10]) it was 1.6; in assay [3] (setting [10]), 1.32. Further, the fold induction at 1 µM is 48.4 in assay [1] (setting [10]), 2.97 in assay [2] (setting [10]) and 1.63 in assay [3] (setting [10]).

Consider `Cc1cn2cc(-c3nc(=O)n4cc(N5CCN[C@@H](C)C5)cc(C)c4n3)cc(F)c2n1` [Compound 117B], for which the fold induction at 0.1 µM in assay [1] (setting [4]) is 52.1; in assay [2] (setting [6]), 15.2; in assay [3] (setting [8]), 22.8. The fold induction at 1 µM in assay [1] (setting [5]) came to 73.5; in assay [2] (setting [7]), 39.9; in assay [3] (setting [9]) it was 55.6.

For the compound `Cc1cn2cc(-c3nc(=O)n4cc(N5CCN[C@@H](C)C5)cc(F)c4n3)cc(C)c2n1` [Compound 121B], the fold induction at 0.1 µM is 24.6 in assay [1] (setting [4]), 9.41 in assay [2] (setting [6]) and 9.95 in assay [3] (setting [8]). Also, the values for the fold induction at 1 µM in assay [1] (setting [5]), in assay [2] (setting [7]) and in assay [3] (setting [9]) were 73.5, 28.8 and 46, respectively.

With `Cc1cn2cc(-c3nc(=O)n4cc(N5CCNCC5)ccc4n3)cc(C)c2n1` [Compound 126B], the fold induction at 0.1 µM is 2.06 in assay [1] (setting [4]), 5.18 in assay [2] (setting [6]) and 3.46 in assay [3] (setting [8]). For the same compound, the fold induction at 1 µM in assay [1] (setting [5]) was determined as 41.5; in assay [2] (setting [7]) it was 17.8; in assay [3] (setting [9]), 25.2.

For `Cc1cc2cc(-c3nc(=O)n4cc(N5CCNC(C)(C)C5)cc(F)c4n3)cc(C)n2n1` [Compound 135B], the figures for the fold induction at 0.1 µM in assay [1] (setting [4]), in assay [2] (setting [6]) and in assay [3] (setting [8]) were 16.1, 7.61 and 5.99, respectively. Further, the fold induction at 1 µM in assay [1] (setting [5]) is 48.8; in assay [2] (setting [7]) it was 14.7; in assay [3] (setting [9]), 16.1.

Regarding `Cc1cc2cc(-c3ccc(-c4ccc(C5CN(C6CCOCC6)C5)nn4)c(O)c3)ccn2n1` [Compound 192A], the fold induction at 0.1 µM in assay [1] (setting [4]) stood at 51.3; in assay [2] (setting [6]), 4.97; in assay [3] (setting [8]), 2.18. In addition, the values for the fold induction at 1 µM in assay [1] (setting [5]), in assay [2] (setting [7]) and in assay [3] (setting [9]) were 70.8, 22.7 and 13.4, respectively.
